Measurements as given in patent US20250186433A1, “ACSS2 INHIBITORS AND METHODS OF USE THEREOF” (EpiVario, Inc., priority 2017, published 2025).

Target: ACSS2 (Homo sapiens, UniProt Q9NR19)
Experiment: biochemical
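Further: Pyrophosphatase-coupled ACSS2 enzyme assay, 10 nM protein incubated 90 min at 37 °C with ATP, CoA and acetate, released phosphate read by Biomol Green absorbance at 620 nm.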

ACSS2, sequence (Q9NR19 whole entry): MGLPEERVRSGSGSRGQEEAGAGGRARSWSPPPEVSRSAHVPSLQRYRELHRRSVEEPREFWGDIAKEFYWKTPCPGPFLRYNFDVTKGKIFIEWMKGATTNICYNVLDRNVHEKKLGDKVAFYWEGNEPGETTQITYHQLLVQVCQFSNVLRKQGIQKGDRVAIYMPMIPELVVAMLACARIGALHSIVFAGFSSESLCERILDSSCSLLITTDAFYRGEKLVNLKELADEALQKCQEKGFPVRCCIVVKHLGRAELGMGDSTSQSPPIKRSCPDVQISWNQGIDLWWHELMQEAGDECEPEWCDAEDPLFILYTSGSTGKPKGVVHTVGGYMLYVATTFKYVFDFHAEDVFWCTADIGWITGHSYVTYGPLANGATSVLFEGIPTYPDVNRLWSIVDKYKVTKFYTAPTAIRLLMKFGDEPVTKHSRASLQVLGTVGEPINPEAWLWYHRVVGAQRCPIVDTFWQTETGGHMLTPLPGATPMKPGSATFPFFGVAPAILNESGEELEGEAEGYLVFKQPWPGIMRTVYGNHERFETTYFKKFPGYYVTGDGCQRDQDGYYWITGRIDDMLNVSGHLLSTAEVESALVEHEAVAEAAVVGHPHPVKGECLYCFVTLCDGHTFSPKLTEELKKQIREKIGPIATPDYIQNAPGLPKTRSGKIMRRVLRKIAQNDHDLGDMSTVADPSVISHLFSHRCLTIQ
Procedure: The assay is based on a coupling reaction with Pyrophosphatase: ACSS2 is converting ATP+CoA+Acetate=>AMP+pyrophosphate+Acetyl-CoA (Ac-CoA). Pyrophosphatase converts pyrophosphate, a product of the ACSS2 reaction, to phosphate which can be detected by measuring the absorbance at 620 nm after incubation with the Biomol green reagent (Enzo life Science, BML-AK111).
At the end of the reaction, Biomol Green was added for 30 minutes at RT and the activity was measured by reading the absorbance at 620 nm.

IC50 [nM]	SMILES
6 to 100	CCC(F)(F)c1cccc(NC(=O)C2C(=O)N(c3ccc4ccn(CCc5ccccc5)c4c3)N=C2C)c1 (stereo not shown) [compound 477, N-[3-(1,1-difluoropropyl)phenyl]-3-methyl-5-oxo-1-[1-(2-phenylethyl)indol-6-yl]-4H-pyrazole-4-carboxamide]
6 to 100	CC1=NN(c2cc(-c3cccnc3)cc(-c3ccc4cc[nH]c4c3)c2)C(=O)C1C(=O)Nc1cccc(C(C)(F)F)c1 (stereo not shown) [compound 473]
6 to 100	CC1=NN(c2cc(-c3cccnc3)cc(-c3cccc4[nH]ccc34)c2)C(=O)C1C(=O)Nc1cccc(C(C)(F)F)c1 (stereo not shown) [compound 465]
0.01 to 6	CCC(F)(F)c1cccc(NC(=O)C2C(=O)N(c3ccc(OC)c(-c4cc(C)nc(C)c4)c3)N=C2C)c1 (stereo not shown) [compound 531, N-(3-(1,1-difluoropropyl)phenyl)-1-(3-(2,6-dimethylpyridin-4-yl)-4-methoxyphenyl)-3-methyl-5-oxo-4,5-dihydro-1H-pyrazole-4-carboxamide]
0.01 to 6	CCC(F)(F)c1cncc(NC(=O)C2C(=O)N(c3ccc(OC(F)F)cc3)N=C2C)c1 (stereo not shown) [compound 511, 1-(4-(difluoromethoxy)phenyl)-N-(5-(1,1-difluoropropyl)pyridin-3-yl)-3-methyl-5-oxo-4,5-dihydro-1H-pyrazole-4-carboxamide]
6 to 100	CCC(F)(F)c1cccc(NC(=O)C2C(=O)N(c3ccc4cnn(S(=O)(=O)c5ccc(C)cc5)c4c3)N=C2C)c1 (stereo not shown) [compound 487, N-[3-(1,1-difluoropropyl)phenyl]-3-methyl-5-oxo-1-[1-(p-tolylsulfonyl)indazol-6-yl]-4H-pyrazole-4-carboxamide]
100 to 1000	CC(F)(F)c1cccc(NC(=O)C2C(=O)N(c3ccc(OC(F)F)cc3)N=C2CS)c1 (stereo not shown) [compound 339]
100 to 1000	CCC(F)(F)c1cccc(NC(=O)C2C(=O)N(c3ccc(OC)cc3)N=C2C(C)=O)c1 (stereo not shown) [compound 529, 3-acetyl-N-(3-(1,1-difluoropropyl)phenyl)-1-(4-methoxyphenyl)-5-oxo-4,5-dihydro-1H-pyrazole-4-carboxamide]
0.01 to 6	CCC(F)(F)c1cccc(NC(=O)C2C(=O)N(c3ccc(OC)c(-c4ccncc4C)c3)N=C2C)c1 (stereo not shown) [compound 532, N-(3-(1,1-difluoropropyl)phenyl)-1-(4-methoxy-3-(3-methylpyridin-4-yl)phenyl)-3-methyl-5-oxo-4,5-dihydro-1H-pyrazole-4-carboxamide]
0.01 to 6	CC1=NN(c2cc(Br)cc(I)c2)C(=O)C1C(=O)Nc1cccc(C(C)(F)F)c1 (stereo not shown) [compound 468]
6 to 100	CCC(F)(F)c1cccc(NC(=O)C2C(=O)N(c3ccc4ccnnc4c3)N=C2C)c1 (stereo not shown) [compound 524, 1-(cinnolin-7-yl)-N-(3-(1,1-difluoropropyl)phenyl)-3-methyl-5-oxo-4,5-dihydro-1H-pyrazole-4-carboxamide]
0.01 to 6	CCC(F)(F)c1cccc(NC(=O)C2C(=O)N(c3ccc4ccsc4c3)N=C2C)c1 (stereo not shown) [compound 485, 1-(benzo[b]thiophen-6-yl)-N-(3-(1,1-difluoropropyl)phenyl)-3-methyl-5-oxo-4,5-dihydro-1H-pyrazole-4-carboxamide]
0.01 to 6	C/C=C(\F)c1cccc(NC(=O)C2C(=O)N(c3ccc(OC(F)F)cc3)N=C2C)c1 (stereo not shown) [compound 494, (Z)-1-(4-(difluoromethoxy)phenyl)-N-(3-(1-fluoroprop-1-en-1-yl)phenyl)-3-methyl-5-oxo-4,5-dihydro-1H-pyrazole-4-carboxamide]
100 to 1000	CC1=NN(c2ccc(OC(F)F)cc2)C(=O)C1C(=O)Nc1cncc(C#N)c1 (stereo not shown) [compound 503, N-(5-cyanopyridin-3-yl)-1-(4-(difluoromethoxy)phenyl)-3-methyl-5-oxo-4,5-dihydro-1H-pyrazole-4-carboxamide]
100 to 1000	CC1=NN(c2ccc(OC(F)F)cc2)C(=O)C1C(=O)Nc1cccc(C(F)(F)C2CCCC2)c1 (stereo not shown) [compound 470, N-(3-(cyclopentyldifluoromethyl)phenyl)-1-(4-(difluoromethoxy)phenyl)-3-methyl-5-oxo-4,5-dihydro-1H-pyrazole-4-carboxamide]
0.01 to 6	CCC(F)(F)c1cccc(NC(=O)C2C(=O)N(c3ccc(OC)c(-c4cc(C)ccn4)c3)N=C2C)c1 (stereo not shown) [compound 537, N-(3-(1,1-difluoropropyl)phenyl)-1-(4-methoxy-3-(4-methylpyridin-2-yl)phenyl)-3-methyl-5-oxo-4,5-dihydro-1H-pyrazole-4-carboxamide]
6 to 100	CCC(F)(F)c1cccc(NC(=O)C2C(=O)N(c3ccc4ccn(C(=O)c5ccc(C)cc5)c4c3)N=C2C)c1 (stereo not shown) [compound 480, N-[3-(1,1-difluoropropyl)phenyl]-3-methyl-1-[1-(4-methylbenzoyl)indol-6-yl]-5-oxo-4H-pyrazole-4-carboxamide]
6 to 100	CC1=NN(c2ccc(OC(F)F)cc2)C(=O)C1C(=O)Nc1cccc(C(F)=C(C)C)c1 (stereo not shown) [compound 496, 1-[4-(difluoromethoxy)phenyl]-N-[3-(1-fluoro-2-methyl-prop-1-enyl)phenyl]-3-methyl-5-oxo-4H-pyrazole-4-carboxamide]

IC50 [nM]	SMILES
0.01 to 6	CC1=NN(c2ccc(OC(F)F)cn2)C(=O)C1C(=O)Nc1cccc(C(F)(F)C2CC2)c1 (stereo not shown) [compound 464, N-(3-(cyclopropyldifluoromethyl)phenyl)-1-(5-(difluoromethoxy)pyridin-2-yl)-3-methyl-5-oxo-4,5-dihydro-1H-pyrazole-4-carboxamide]
0.01 to 6	CCCC(=O)n1ccc2ccc(N3N=C(C)C(C(=O)Nc4cccc(C(F)(F)CC)c4)C3=O)cc21 (stereo not shown) [compound 478, 1-(1-butanoylindol-6-yl)-N-[3-(1,1-difluoropropyl)phenyl]-3-methyl-5-oxo-4H-pyrazole-4-carboxamide]
0.01 to 6	CCC(F)(F)c1cccc(NC(=O)C2C(=O)N(c3ccc4cn[nH]c4c3)N=C2C)c1 (stereo not shown) [compound 499, N-[3-(1,1-difluoropropyl)phenyl]-1-(1H-indazol-6-yl)-3-methyl-5-oxo-4H-pyrazole-4-carboxamide]
0.01 to 6	CCC(F)(F)c1cccc(NC(=O)C2C(=O)N(c3ccc(S(C)(=O)=O)cc3)N=C2C)c1 (stereo not shown) [compound 508, N-(3-(1,1-difluoropropyl)phenyl)-3-methyl-1-(4-(methylsulfonyl)phenyl)-5-oxo-4,5-dihydro-1H-pyrazole-4-carboxamide]
0.01 to 6	CCC(F)(F)c1cccc(NC(=O)C2C(=O)N(c3ccc4nccnc4c3)N=C2C)c1 (stereo not shown) [compound 488, N-(3-(1,1-difluoropropyl)phenyl)-3-methyl-5-oxo-1-(quinoxalin-6-yl)-4,5-dihydro-1H-pyrazole-4-carboxamide]
6 to 100	COc1ccccc1Cc1cc(-c2cccnc2)cc(N2N=C(C)C(C(=O)Nc3cccc(C(C)(F)F)c3)C2=O)c1 (stereo not shown) [compound 466]
0.01 to 6	CCC(F)(F)c1cccc(NC(=O)C2C(=O)N(c3cnc(Cl)cn3)N=C2C)c1 (stereo not shown) [compound 489, 1-(5-chloropyrazin-2-yl)-N-(3-(1,1-difluoropropyl)phenyl)-3-methyl-5-oxo-4,5-dihydro-1H-pyrazole-4-carboxamide]
100 to 1000	CON(C)C(=O)C(F)(F)c1cccc(NC(=O)C2C(=O)N(c3ccc(OC(F)F)c(-c4ccccn4)c3)N=C2C)c1 (stereo not shown) [compound 471, N-(3-(1,1-difluoro-2-(methoxy(methyl)amino)-2-oxoethyl)phenyl)-1-(4-(difluoromethoxy)-3-(pyridin-2-yl)phenyl)-3-methyl-5-oxo-4,5-dihydro-1H-pyrazole-4-carboxamide]
6 to 100	CCC(F)(F)c1cccc(NC(=O)C2C(=O)N(c3ccc(OC)cc3C(C)=O)N=C2C)c1 (stereo not shown) [compound 516, 1-(2-acetyl-4-methoxyphenyl)-N-(3-(1,1-difluoropropyl)phenyl)-3-methyl-5-oxo-4,5-dihydro-1H-pyrazole-4-carboxamide]
0.01 to 6	CCC(F)(F)c1cccc(NC(=O)C2C(=O)N(c3ccc4c(C)cn(C)c4c3)N=C2C)c1 (stereo not shown) [compound 497, N-(3-(1,1-difluoropropyl)phenyl)-1-(1,3-dimethyl-1H-indol-6-yl)-3-methyl-5-oxo-4,5-dihydro-1H-pyrazole-4-carboxamide]
0.01 to 6	CCC(F)(F)c1cccc(NC(=O)C2C(=O)N(c3ccc4ccn(-c5ccccc5)c4c3)N=C2C)c1 (stereo not shown) [compound 472, N-[3-(1,1-difluoropropyl)phenyl]-3-methyl-5-oxo-1-(1-phenylindol-6-yl)-4H-pyrazole-4-carboxamide]
6 to 100	CCC(F)(F)c1ccnc(NC(=O)C2C(=O)N(c3ccc(OC(F)F)cc3)N=C2C)c1 (stereo not shown) [compound 484, 1-(4-(difluoromethoxy)phenyl)-N-(4-(1,1-difluoropropyl)pyridin-2-yl)-3-methyl-5-oxo-4,5-dihydro-1H-pyrazole-4-carboxamide]
0.01 to 6	CCC(F)(F)c1cccc(NC(=O)C2C(=O)N(c3cc4[nH]ccc4cn3)N=C2C)c1 (stereo not shown) [compound 507, N-(3-(1,1-difluoropropyl)phenyl)-3-methyl-5-oxo-1-(1H-pyrrolo[3,2-c]pyridin-6-yl)-4,5-dihydro-1H-pyrazole-4-carboxamide]
0.01 to 6	CCC(F)(F)c1cccc(NC(=O)C2C(=O)N(c3ccc4ccn(C(=O)c5ccccc5C)c4c3)N=C2C)c1 (stereo not shown) [compound 479]
6 to 100	COc1ccccc1Cc1cc(-c2ccccc2)cc(N2N=C(C)C(C(=O)Nc3cccc(C(C)(F)F)c3)C2=O)c1 (stereo not shown) [compound 467]
0.01 to 6	CCC(F)(F)c1cccc(NC(=O)C2C(=O)N(c3ccc4ccn(C(=O)c5ccccc5O)c4c3)N=C2C)c1 (stereo not shown) [compound 509, N-(3-(1,1-difluoropropyl)phenyl)-1-(1-(2-hydroxybenzoyl)-1H-indol-6-yl)-3-methyl-5-oxo-4,5-dihydro-1H-pyrazole-4-carboxamid]
0.01 to 6	CCC(F)(F)c1cccc(NC(=O)C2C(=O)N(c3ccc(OC)c(-c4ccc(C)cn4)c3)N=C2C)c1 (stereo not shown) [compound 534, N-(3-(1,1-difluoropropyl)phenyl)-1-(4-methoxy-3-(5-methylpyridin-2-yl)phenyl)-3-methyl-5-oxo-4,5-dihydro-1 H-pyrazole-4-carboxamide]
0.01 to 6	CCC(F)(F)c1cccc(NC(=O)C2C(=O)N(c3ccc4cccnc4c3)N=C2C)c1 (stereo not shown) [compound 474, N-(3-(1,1-difluoropropyl)phenyl)-3-methyl-5-oxo-1-(quinolin-7-yl)-4,5-dihydro-1H-pyrazole-4-carboxamide]

SMILES	IC50 [nM]
CCc1cccc(NC(=O)C2C(=O)N(c3ccc([N+](=O)[O-])cc3)N=C2C)c1 (stereo not shown) [compound 157]	1000 to 100000
